Measured values taken from ChEMBL document CHEMBL1201862, “PubChem BioAssay data set” (2004).
The source made the active and inactive calls. Rule as the data show it, for most assays here: actives have a measured EC50 and inactives only a lower limit.

Assays:
[1] = target: T1, Short transient receptor potential channel 4 (Mus musculus, UniProt Q9QUQ5); experiment: mouse TRPC4 channel inhibitors, dose response, cell-based, HEK293 TRPC4/mu-opioid, Fluo-4 calcium (AID 434942); format: functional;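 also: potency of inhibitors blocking the TRPC4 calcium response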
T1 sequence (Q9QUQ5 whole entry): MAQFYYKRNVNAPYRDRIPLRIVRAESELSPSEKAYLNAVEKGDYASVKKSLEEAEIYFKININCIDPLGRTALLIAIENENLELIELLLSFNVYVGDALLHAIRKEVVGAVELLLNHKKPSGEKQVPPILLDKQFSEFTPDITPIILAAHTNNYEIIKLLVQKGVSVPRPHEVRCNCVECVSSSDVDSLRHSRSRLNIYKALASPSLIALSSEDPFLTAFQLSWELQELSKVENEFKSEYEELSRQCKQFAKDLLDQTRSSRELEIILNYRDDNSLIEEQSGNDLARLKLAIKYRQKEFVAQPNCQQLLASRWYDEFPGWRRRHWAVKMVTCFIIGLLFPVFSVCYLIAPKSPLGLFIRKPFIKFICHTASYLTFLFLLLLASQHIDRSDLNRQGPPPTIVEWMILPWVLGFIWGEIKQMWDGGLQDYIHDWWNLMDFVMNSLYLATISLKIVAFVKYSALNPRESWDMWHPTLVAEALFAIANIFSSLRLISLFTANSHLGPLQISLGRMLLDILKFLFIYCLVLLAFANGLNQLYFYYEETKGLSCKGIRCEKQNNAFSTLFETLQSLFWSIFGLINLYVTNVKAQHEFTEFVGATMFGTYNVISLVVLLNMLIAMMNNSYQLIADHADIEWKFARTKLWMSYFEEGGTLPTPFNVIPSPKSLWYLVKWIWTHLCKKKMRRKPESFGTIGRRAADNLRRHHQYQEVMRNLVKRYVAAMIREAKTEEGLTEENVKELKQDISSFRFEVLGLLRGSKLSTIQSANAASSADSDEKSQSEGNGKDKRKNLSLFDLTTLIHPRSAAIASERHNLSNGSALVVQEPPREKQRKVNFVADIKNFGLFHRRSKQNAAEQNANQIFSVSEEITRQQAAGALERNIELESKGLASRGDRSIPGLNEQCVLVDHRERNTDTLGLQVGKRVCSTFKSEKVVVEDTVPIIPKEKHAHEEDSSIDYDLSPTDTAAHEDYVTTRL

[2] = Luminescence Cell-Based Dose Confirmation HTS to Identify Activators of 5'UTR Stem-Loop Driven Alpha-Synuclein mRNA Translation in H4 Neuroglioblastoma Cells. [Related pubchem assays: 1829 (Project Summary), 1814 (Primary HTS)]; format: functional
[3] = Luminescence Cell-Based Dose Response HTS to Identify Activators of Luciferase Translation or Activity in H4 […] Cells. [Related pubchem assays: 1829 (Project Summary), 1814 (Primary HTS)]; format: functional
[4] = system: H4; experiment: Luminescence Cell-Based Dose Response HTS to Identify Activators of 5'UTR Stem-Loop Driven Prion Protein mRNA Translation in H4 Neuroglioblastoma Cells. [Related pubchem assays: 1829 (Project Summary), 1814 (Primary HTS)]; format: functional; conditions: Homo sapiens
[5] = target: T2, Carboxy-terminal domain RNA polymerase II polypeptide A small phosphatase 1 (Homo sapiens, UniProt Q9GZU7); experiment: inhibitors of CTDSP1, concentration-response testing, biochemical assay, absorbance-based, actives from ultra-high-throughput screening (AID 540297); format: functional
T2 sequence (Q9GZU7 whole entry): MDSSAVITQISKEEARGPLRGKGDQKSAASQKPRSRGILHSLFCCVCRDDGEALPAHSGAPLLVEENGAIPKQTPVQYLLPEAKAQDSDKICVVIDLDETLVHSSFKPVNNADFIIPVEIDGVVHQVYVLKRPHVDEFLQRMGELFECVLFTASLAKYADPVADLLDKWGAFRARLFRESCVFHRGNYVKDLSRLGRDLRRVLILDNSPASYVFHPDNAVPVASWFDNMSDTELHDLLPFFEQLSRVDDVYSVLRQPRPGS

[6] = inhibitors of firefly luciferase expression or activity, dose response, H4 neuroglioma cells, luminescence (AID 1990); format: functional, cell-based
[7] = system: Streptococcus sp. 'group A'; experiment: growth inhibition of control SK(-) GAS strain, dose response, counter-screen for streptokinase expression inhibitor project, luminescence, kanamycin, BacTiterGlo, confirmation (AID 1900); format: functional, organism-based
[8] = Luminescence Cell-Based Dose Response HTS to Identify Inhibitors of 5'UTR Stem-Loop Driven Prion Protein mRNA Translation in H4 Neuroglioblastoma Cells. [Related pubchem assays: 1827 (Project Summary), 1813 (Primary HTS)]; format: functional
[9] = inhibitors of SNCA 5'UTR-driven reporter translation, confirmation, H4 neuroglioma cells, luminescence (AID 1988); format: functional, cell-based
[10] = target: T3, Streptokinase A (Streptococcus pyogenes serotype M1, UniProt P10520); experiment: S. pyogenes streptokinase expression inhibitors, potency, dose response, plasminogen activation absorbance, OD405 (AID 1914); format: functional, Streptococcus pyogenes M1 GAS;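 also: secreted streptokinase activity via plasminogen activation per viability signal from cell pellet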
T3 sequence (P10520 whole entry): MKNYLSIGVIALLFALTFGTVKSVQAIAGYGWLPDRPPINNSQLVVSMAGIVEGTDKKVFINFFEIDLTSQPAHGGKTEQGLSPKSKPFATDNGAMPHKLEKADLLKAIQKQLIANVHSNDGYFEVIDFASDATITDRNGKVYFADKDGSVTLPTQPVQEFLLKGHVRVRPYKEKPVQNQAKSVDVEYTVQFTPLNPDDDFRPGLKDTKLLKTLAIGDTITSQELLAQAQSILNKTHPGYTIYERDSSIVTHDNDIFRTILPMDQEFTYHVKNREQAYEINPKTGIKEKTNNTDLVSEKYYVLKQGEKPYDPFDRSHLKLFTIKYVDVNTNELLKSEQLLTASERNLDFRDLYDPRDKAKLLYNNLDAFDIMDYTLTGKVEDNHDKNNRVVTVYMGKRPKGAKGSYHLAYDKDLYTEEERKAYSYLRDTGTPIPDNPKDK

[11] = system: Streptococcus; experiment: Group A Streptococcus viability loss, dose response, counter-screen for streptokinase expression inhibitor project, luminescence, BacTiterGlo (AID 1915); format: functional, organism-based;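 also: potency for reduction of bacterial viability or growth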
[12] = target: T4, Heat shock factor protein 1 (Mus musculus, UniProt P38532); experiment: HSF1 potentiators in luciferase reporter cells, confirmation, cell-based, NIH3T3, luminescence, dose retest (AID 435004); format: functional;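 also: stress induced by proteasome inhibitor MG132 added 30 min after compound; luciferase reporter driven by HSF1 response element in NIH3T3 cells; actives raise luminescence as potentiators of the MG132 stress response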
T4 sequence (P38532 whole entry): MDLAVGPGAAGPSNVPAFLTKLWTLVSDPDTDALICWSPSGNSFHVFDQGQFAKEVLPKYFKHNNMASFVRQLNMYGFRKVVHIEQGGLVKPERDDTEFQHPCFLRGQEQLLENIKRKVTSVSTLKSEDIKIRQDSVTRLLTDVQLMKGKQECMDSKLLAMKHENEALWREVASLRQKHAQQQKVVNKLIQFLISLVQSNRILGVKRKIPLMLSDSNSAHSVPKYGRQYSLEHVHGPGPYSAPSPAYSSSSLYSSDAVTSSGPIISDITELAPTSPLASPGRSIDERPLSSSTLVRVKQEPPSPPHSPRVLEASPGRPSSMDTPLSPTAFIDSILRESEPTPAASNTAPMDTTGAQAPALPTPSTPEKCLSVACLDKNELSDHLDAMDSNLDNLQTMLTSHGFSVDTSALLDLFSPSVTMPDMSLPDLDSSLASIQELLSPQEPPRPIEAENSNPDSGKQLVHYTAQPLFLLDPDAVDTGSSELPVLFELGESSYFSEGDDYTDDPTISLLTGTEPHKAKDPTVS

[13] = system: INS1; experiment: beta cell apoptosis inhibitors, cytokine rescue, dose response, luminescence, retest (AID 449756); format: functional, cell-based; conditions: Rattus norvegicus;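 also: cell death triggered by IL-1 beta plus TNF-alpha plus IFN-gamma mixture; protective hits raise ATP signal compared with cytokine alone wells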
[14] = Luminescence Cell-Based Dose Retest to Confirm Inhibitors of Cancer Stem Cells. [Related pubchem assays (depositor defined):AID2717, AID2721]; format: functional; conditions: Homo sapiens
[15] = target: T5, Replicative DNA helicase DnaB (Mycobacterium tuberculosis, UniProt P9WMR3); experiment: DnaB intein splicing inhibitors, dose response, biochemical, cell-free fluorescence (AID 449749); format: functional
T5 sequence (P9WMR3 whole entry): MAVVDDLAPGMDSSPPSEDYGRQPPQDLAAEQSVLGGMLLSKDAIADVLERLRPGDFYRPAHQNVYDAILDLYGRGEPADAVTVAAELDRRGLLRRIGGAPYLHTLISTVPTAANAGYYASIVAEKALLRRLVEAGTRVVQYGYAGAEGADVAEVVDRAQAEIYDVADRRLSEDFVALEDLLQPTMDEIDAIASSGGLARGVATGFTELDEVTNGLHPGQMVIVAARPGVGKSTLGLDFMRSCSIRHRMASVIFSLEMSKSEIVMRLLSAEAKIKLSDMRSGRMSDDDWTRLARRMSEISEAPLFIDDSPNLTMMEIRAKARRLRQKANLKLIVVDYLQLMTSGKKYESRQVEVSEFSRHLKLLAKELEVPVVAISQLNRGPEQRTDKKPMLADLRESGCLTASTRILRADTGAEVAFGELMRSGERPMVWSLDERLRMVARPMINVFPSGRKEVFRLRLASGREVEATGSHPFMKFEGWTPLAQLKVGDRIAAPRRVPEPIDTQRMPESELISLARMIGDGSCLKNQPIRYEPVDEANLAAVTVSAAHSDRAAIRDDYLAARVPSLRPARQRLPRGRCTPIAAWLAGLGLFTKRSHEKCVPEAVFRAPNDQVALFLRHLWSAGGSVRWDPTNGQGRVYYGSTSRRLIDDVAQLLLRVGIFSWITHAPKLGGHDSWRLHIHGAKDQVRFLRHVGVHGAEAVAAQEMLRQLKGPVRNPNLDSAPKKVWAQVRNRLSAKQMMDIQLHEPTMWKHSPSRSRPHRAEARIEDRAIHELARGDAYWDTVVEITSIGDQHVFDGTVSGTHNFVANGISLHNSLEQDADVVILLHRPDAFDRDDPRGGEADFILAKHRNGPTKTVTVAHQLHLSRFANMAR

[16] = target: T6, Protein RecA (Mycobacterium tuberculosis, UniProt P9WHJ3); experiment: Fluorescence Cell-Free Homogeneous Dose Retest to Identify Inhibitors of RecA-Intein Splicing Activity. [Related pubchem assays (depositor defined):AID2097, AID2223, AID489010, AID492950]; format: functional
T6 sequence (P9WHJ3 whole entry): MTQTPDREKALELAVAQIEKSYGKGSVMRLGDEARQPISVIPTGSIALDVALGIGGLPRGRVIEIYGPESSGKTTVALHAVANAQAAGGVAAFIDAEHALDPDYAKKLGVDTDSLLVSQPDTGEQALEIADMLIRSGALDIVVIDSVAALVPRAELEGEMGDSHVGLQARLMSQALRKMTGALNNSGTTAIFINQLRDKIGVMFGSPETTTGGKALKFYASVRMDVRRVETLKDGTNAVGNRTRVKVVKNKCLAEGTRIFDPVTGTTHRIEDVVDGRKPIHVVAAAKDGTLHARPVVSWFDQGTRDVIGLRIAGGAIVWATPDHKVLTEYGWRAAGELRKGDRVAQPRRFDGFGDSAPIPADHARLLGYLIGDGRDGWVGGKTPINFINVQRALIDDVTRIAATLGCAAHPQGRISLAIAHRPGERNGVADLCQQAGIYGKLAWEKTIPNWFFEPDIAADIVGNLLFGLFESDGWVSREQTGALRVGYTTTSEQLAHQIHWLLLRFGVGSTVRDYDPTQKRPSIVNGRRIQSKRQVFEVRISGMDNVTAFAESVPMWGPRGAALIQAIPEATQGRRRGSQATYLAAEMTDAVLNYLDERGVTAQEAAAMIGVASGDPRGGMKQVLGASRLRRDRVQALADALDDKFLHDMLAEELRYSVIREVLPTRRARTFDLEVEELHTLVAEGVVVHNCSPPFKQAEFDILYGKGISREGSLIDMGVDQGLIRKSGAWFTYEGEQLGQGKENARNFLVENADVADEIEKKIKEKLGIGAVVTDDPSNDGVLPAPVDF

Compound: FC(F)Oc1ccccc1N=C(S)Nc1cccc(Cl)c1Cl
- EC50 [1]: 7.5 µM (active)

Compound: O=C(N/N=C/c1ccc(Cl)cc1)c1ccc2c(c1)OCO2
- EC50 [2]: > 120 µM (not active)
- EC50 [3]: 1.87 µM (active)
- EC50 [4]: 2.44 µM (active)
- IC50 [5]: 6.93 µM (active)

Compound: NCCCn1c(C(=O)c2cc(Cl)c(N)c(Cl)c2)c2ccc([N+](=O)[O-])cc2[n+]1[O-]
- EC50 [6]: 5.24 µM (active)
- EC50 [7]: 2.8 µM (active)
- EC50 [8]: > 120 µM (not active)
- EC50 [9]: 2.06 µM (active)
- EC50 [10]: > 150 µM (not active)
- EC50 [11]: 5.08 µM (active)
- EC50 [12]: 46.8 µM (active)
- AC50 [13]: 4.16 µM (active)

Compound: O=C(Cn1nnc(-c2ccc(NC(=O)c3ccccc3F)cc2)n1)NCc1ccc(F)cc1
- IC50 [5]: 4.75 µM (active)

Compound: CC(C)C(=O)Nc1ccc(C(=O)Nc2nnc(C(C)(C)C)s2)cc1
- EC50 [1]: 0.237 µM (active)

Compound: CCCOc1cccc(C(=O)NCCNC(=O)c2ccco2)c1
- EC50 [1]: 2.99 µM (active)

Compound: FC(F)(F)c1ccc(C2[C@H]3CN(Cc4cccnc4)[C@H](c4ccccc4)C34CC2(c2cccnc2)C4)cc1 (stereo not given in full)
- EC50 [7]: 2.85 µM (active)
- EC50 [10]: 6.65 µM (active)
- EC50 [11]: 12 µM (active)
- AC50 [14]: 3.07 µM (active)
- AC50 [15]: 3.46 µM (active)
- EC50 [16]: 24.1 µM (active)

Compound: COc1ccc(C2CC(c3ccccc3)Nc3nc(NC(=O)c4cccs4)nn32)cc1 (stereo not given)
- EC50 [1]: 1.06 µM (active)

Compound: CC1CCCN1CC#CC(O)(c1ccccc1)c1ccccc1 (stereo not given)
- EC50 [1]: 0.188 µM (active)

Compound: COc1ccc2c(c1)[N+](C)(C)C(C)(C)C=C2C
- IC50 [5]: 3.14 µM (active)

Compound: O=C(CSc1nnc(-c2ccc(S(=O)(=O)N3CCCC3)cc2)o1)NCc1ccco1
- IC50 [5]: 16.3 µM (active)

Compound: Cc1c(Cl)c(C(F)F)nn1CC(=O)NC1C(=O)N2C(C(=O)O)=C(CSc3nnnn3C)CSC12 (stereo not given)
- EC50 [7]: < 0.06 µM (active)
- EC50 [11]: 0.106 µM (active)
- IC50 [5]: 6.48 µM (active)

Compound: CN(C)S(=O)(=O)c1cccc(NC(=O)COC(=O)/C=C/c2ccco2)c1
- IC50 [5]: 21.1 µM (active)
